From PubChem BioAssay AID602251 (NMMLSC, 2012)
Activity calls are given as the source filed them.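 The calls were made as follows: active = fitted concentration giving half of the maximal binding block below 66 µM; inactive = the rest.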

molecular target: anti-desmoglein 3 scFv antibody binding to human desmoglein 3 (DSG3); assay: inhibitors of anti-DSG3 scFv binding to DSG3, dose response, biochemical, DSG3-coupled beads, scFv-GFP, flow cytometry, Cherry Pick 1 (AID 602251); settings: not given

Row | Structure (SMILES) | EC50
1 | O=C(O)c1cccc2c1NC(C(=O)O)C1CC(Sc3ccccc3[N+](=O)[O-])C(Cl)C21 (stereo unspecified) | 29 µM
2 | Nn1c(SCC(=O)Nc2cc(C(F)(F)F)ccc2Cl)nncc1=O | 29.6 µM
3 | CN1C(=CC=C2C=C(I)C(=O)C(I)=C2)C(C)(C)c2ccccc21 | 15.7 µM
4 | O=C(CSc1ccc(Cl)cc1)Nc1cccc(-c2nc3ccccc3[nH]2)c1 | 59.2 µM
5 | CC(=O)Nc1cc(=O)c2cccnc2[nH]1 | 25.4 µM
6 | CCN(CC)c1ccc(NC(=O)CCCCC(=O)Nc2ccc(N(CC)CC)cc2)cc1 | 27.2 µM
7 | CCC(CC)C(=O)Nc1cccc(S(=O)(=O)c2cccc(NC(=O)C(CC)CC)c2)c1 | 55 µM
8 | CCC(=C/c1sc2ccc3ccccc3c2[n+]1C)/C=C1\Sc2ccc3ccccc3c2N1C | 25.9 µM
9 | C=CCNC(=O)c1c(N)n(-c2cccc(S(N)(=O)=O)c2)c2nc3ccccc3nc12 | 58.5 µM
10 | C=CCn1c(O)c(C2=c3ccccc3=NC2=O)s/c1=N/c1nccs1 | 39.6 µM
11 | COCCn1c(=NC(=O)CCS(=O)(=O)c2ccccc2)sc2cc(C(=O)OC)ccc21 | 25.4 µM
12 | O=C(Nc1ccc(N2CCOCC2)cc1)c1ccc2nc(-c3ccco3)c(-c3ccco3)nc2c1 | 25.4 µM
13 | COc1ccc(-n2c(SCC(=O)Nc3nccs3)nnc2-c2ccc(Cl)cc2)cc1 | 28.1 µM
14 | O=[N+]([O-])c1ccc(N=NNc2ccc([N+](=O)[O-])cc2)cc1 | 58.8 µM

same assay, conditions: at 66.1 µM (top of the series)

Row | Structure (SMILES) | binding response, lower = inhibition
15 | O=C(N/N=C1/C(=O)c2cccc3cccc1c23)c1ccc(Cl)cc1 | inactive
16 | Cc1ccc2nc(NC(=O)c3ccc4ncsc4c3)sc2c1 | inactive
17 | Cc1ccc(-c2nc3sc(C#N)c(N)n3c(=O)c2C#N)cc1 | inactive
18 | CN(C(=O)COC(=O)c1ccc(-c2ccc(O)cc2)cc1)C1CCS(=O)(=O)C1 (stereo unspecified) | inactive
19 | Cc1sc(NC(=O)CSc2nnc3scc(-c4ccccc4)n23)c(C#N)c1C | inactive
20 | COc1ccc(CCNC(=O)COc2ccc(-c3ccc(C)cc3)cc2)cc1OC | inactive
21 | CCCn1c(C)nc2c(c1=O)c1nc3ccccc3nc1n2-c1ccccc1 | inactive
22 | COc1ccc(NC(=O)c2ccc3c(c2)C(=O)N(Cc2cccnc2)C3=O)c(OC)c1 | inactive
23 | O=C(COC(=O)c1ccc(S(=O)(=O)N2CCc3ccccc3C2)cc1)NC1CCS(=O)(=O)C1 (stereo unspecified) | inactive
24 | CCOc1ccccc1NCc1cc(=O)oc2cc(C)c(O)cc12 | inactive
25 | O=C(Nc1ccc(-c2cn3c(n2)SCC3)cc1)c1ccc2c(c1)OCO2 | inactive
26 | Cc1ccc(O)c(NC(=O)CSc2ccc(Cl)cc2)c1 | inactive
27 | COc1ccc(Cl)cc1NC(=O)CSc1nc(NS(=O)(=O)c2ccc(C)cc2)cc(=O)[nH]1 | inactive
28 | COc1cc(/C=C2/C(=N)N3OC(C)=CC3=NC2=O)ccc1OC(=O)c1ccco1 | inactive
29 | COc1ccccc1NS(=O)(=O)c1cccc(NC(=O)c2cc3ccccc3oc2=O)c1 | inactive
30 | O=C(Cc1ccccc1)Nc1ccc(NC(=O)c2cccs2)cc1Cl | inactive
31 | O=C(Nc1cc(Cl)ccc1Cl)c1ccc(OC(=O)c2ccco2)cc1 | inactive
32 | CCCNC(=O)c1c(N)n(-c2ccc(S(N)(=O)=O)cc2)c2nc3ccccc3nc12 | inactive
33 | Cc1ccc(NC(=O)CSc2ccc(C(N)=O)cc2[N+](=O)[O-])cc1C | inactive
34 | NC(=O)c1ccc(NC(=O)CSc2nnc(-c3ccc4c(c3)OCO4)o2)cc1 | inactive
35 | COc1ccc(N2CCN(C(=O)c3sc4nc(-c5ccc(F)cc5)cn4c3C)CC2)cc1 | inactive
36 | COc1ccc2c(c1)c(N=NC(N)=S)c(O)n2CC(=O)c1ccccc1 | inactive
37 | Cc1cc(C)cc(N(CC(=O)NC2CCC(C)CC2)S(=O)(=O)c2c(C)noc2C)c1 (stereo unspecified) | inactive
38 | Nc1ncnc2oc(-c3ccco3)c(-c3ccco3)c12 | inactive
39 | COc1ccccc1C(=O)Nc1ccc(Oc2ncnc3sc(-c4ccccc4)cc23)cc1 | inactive
40 | Cc1cc(SCC(=O)Nc2ccc3[nH]c(=O)[nH]c3c2)nc2ccccc12 | inactive

Row | Structure (SMILES) | binding response, lower = inhibition
41 | COc1ccc(-c2cn3c(C)c(C(=O)Nc4cccc(NC(C)=O)c4)sc3n2)cc1 | inactive
42 | COc1cc(OC)cc(N(C(=O)C2COc3ccccc3O2)C(C(=O)NC2CCCCC2)c2ccc(O)cc2)c1 (stereo unspecified) | inactive
43 | O=C(Nc1ccc(S(=O)(=O)NCc2ccccc2)cc1)C1CCCCC1 | inactive
44 | O=C(COc1cccnc1[N+](=O)[O-])Nc1cc(S(=O)(=O)N2CCCCC2)ccc1Cl | inactive
45 | COc1ccccc1CNC(=O)COC(=O)c1ccc(S(=O)(=O)N2CCCC2)cc1 | inactive
46 | Cn1c2ccccc2c(=O)c2c(=O)n(Cc3ccco3)c(COc3ccccc3)nc21 | inactive
47 | COc1cc(C(C(=O)NC2CCCCC2)N(CCN2CCOCC2)C(=O)C2COc3ccccc3O2)cc(OC)c1OC (stereo unspecified) | inactive
48 | CC(=O)Nc1ccc(-c2cc(-c3ccccc3)nc(-c3ccccc3)n2)cc1 | inactive
49 | CCOc1ccc(Nc2ncnc3c2cnn3-c2ccccc2)cc1 | inactive
50 | COc1ccc(C2=C(Nc3ccc(F)cc3)c3ccccc3C2=O)cc1 | inactive
51 | Cc1cccc(NC(=O)Cn2nnc(C(=O)NCc3cccs3)c2N)c1C | inactive
52 | CC(C)(C)NS(=O)(=O)c1ccc(NC(=O)c2cc(-c3ccccc3)nc3ccccc23)cc1 | inactive
53 | CN(C)c1nc(N)ncc1-c1ccc(Oc2ccccc2)cc1 | inactive
54 | COCCCNC(=O)c1c(N)n(-c2cccc(S(N)(=O)=O)c2)c2nc3ccccc3nc12 | inactive
55 | COc1ccc(-c2cc(=O)oc3cc(OCC(=O)Nc4ccccn4)ccc23)cc1 | inactive
56 | O=C(Nc1cccc([N+](=O)[O-])c1)c1ccc(CSc2ccccc2)cc1 | inactive
57 | Cc1nnc2ccc(-c3ccc(NS(=O)(=O)c4ccccc4)cc3)nn12 | inactive
58 | CN(C)Cc1cc(O)c(CN(C)C)cc1O | inactive
59 | COc1ccc2cc(C#N)c(SCC(=O)N3CC(=O)Nc4ccccc43)nc2c1 | inactive
60 | COc1ccccc1-n1cnc2c(c1=O)c1nc3ccccc3nc1n2-c1ccc(C)c(C)c1 | inactive
61 | Nc1cc(-c2ccc(Br)cc2)nn1S(=O)(=O)c1ccccc1 | inactive
62 | CCOC(=O)N1CCC(NC(=O)c2cc3c(-c4ccccc4F)nn(C)c3s2)CC1 | inactive
63 | S=c1[nH]ncn1/N=C/c1ccccc1 | inactive
64 | COc1ccc(C(=O)Nc2ccc(NC(=O)c3cnccn3)cn2)cc1 | inactive
65 | O=C(Nc1cccc2ccccc12)N1CCN(c2ccccc2)CC1 | inactive
66 | O=C(CSc1ccsc1[N+](=O)[O-])Nc1cc(F)ccc1F | inactive
